Measured values reported in US20230201290A1, “TGF-BETA INHIBITION, AGENTS AND COMPOSITION THEREFOR” (GMP BIOTECHNOLOGY LIMITED, priority 2020, published 2023).
Values after ≈ are worked out from the molar mass of the structure shown. Values joined by “and” are separate entries in the source; they are usually repeats but may differ in a detail not shown here. Identical values can stand only once. Like-named read-outs stand apart in the source and are kept apart here.

What was measured:
SARS-COV-2 USA_WA1/2020 [1] = details: for Antiviral activity against SARS-CoV-2 (words): Vero 76; for SI=CC50/EC50: SARS-CoV-2; for SI (CC50/EC50): SARS-CoV-2, Vero 76 cells; for EC50: 50% effective antiviral concentration: SARS-CoV-2 USA_WA1/2020, Vero 76, CPE neutral red, day 5
SARS-CoV-2 [2] = details: Vero E6, MOI 0.01, 24 h post-infection; cited from earlier work
SARS-CoV-2 [3] = details: VeroE6, 2-day incubation; cited from earlier work
falciparum malaria = details: cited from earlier work; for recrudescence in a month: 1975, 3-day regimens
vivax malaria = details: cited from earlier work; for relapse rate within a month: 1975 comparison with chloroquine
cerebral malaria = details: cited from earlier work
TGF-β mRNA = details: 100 mg/kg ip daily for 20 days; P<0.01; cited from earlier work
in vitro = details: African green monkey
[4] = cited from earlier work
[5] = 500 mg orally, Child B cirrhosis; cited from earlier work
SARS-COV-2 USA_WA1/2020 [6] = assay: microbe, parasite or virus in culture
[7] = healthy subjects; cited from earlier work
Vero 76 cells = details: for CC50: 50% cytotoxic concentration of compound without virus added: run alongside SARS-CoV-2 test
Vero E6 cells = details: remdesivir, literature; cited from earlier work
SARS-CoV-2 virus = details: higher values with higher multiplicity of infection; read-out: EC50 values for SARS-CoV-2 virus in the literature; cited from earlier work
C8161 human melanoma = assay: Orthotopic C8161 human melanoma model
[8] = 527 cases of falciparum malaria

Molecule: C[C@@H]1CC[C@H]2[C@@H](C)C(=O)O[C@@H]3O[C@@]4(C)CC[C@@H]1[C@]32OO4 [Artemisinin]
- Antiviral activity against SARS-CoV-2 (words) (SARS-COV-2 USA_WA1/2020 [1]): suppressed SARS-CoV-2 replication
- Antiviral activity against SARS-CoV-2 (words) (SARS-COV-2 USA_WA1/2020 [1]; listed as artemisinin): High antiviral activity
- anti-SARS-CoV-2 activity by RTPCR method (SARS-CoV-2 [2]): confirmed
- anti-SARS-CoV-2 activity by immunostaining for spike protein (SARS-CoV-2 [3]): confirmed
- cure of chloroquine-resistant (RI-RIII) cases (falciparum malaria; 143 cases, 3-day regimen oil, oil suspension or water suspension): all patients were cured
- Fever clearance time (falciparum malaria; [8]): 30 to 40 h
- asexual parasite clearance time (falciparum malaria; [8]): 30 to 50 h
- average asexual parasite clearance time (falciparum malaria; 1975, 3-day regimens: artemisinin tablets 2.5 g, chloroquine 1.5 g base): 37 ± 17.8 h
- recrudescence in a month (falciparum malaria): All the cases
- average parasite clearance time (falciparum malaria; group A: 500 mg daily for 5 days): 34 ± 14 h
- average parasite clearance time (falciparum malaria; group B: 100/100/250/250/500 mg escalating): 50 ± 23 h
- mean parasite clearance time (falciparum malaria; single 500 mg oral dose, 11 patients): 36 h
- recrudescence rate within a month (falciparum malaria; tablets): 85%
- average asexual parasite clearance time (vivax malaria; 1511 cases of vivax malaria): 30 to 40 h
- average defervescence time (vivax malaria; 1511 cases of vivax malaria): 20 to 30 h
- parasite clearance time (vivax malaria; 1975: artemisinin tablets total 3 g, chloroquine total 1.5 g base): 39.6 ± 13.5 h
- relapse rate within a month (vivax malaria): 21.4%
- mortality rate (cerebral malaria; 141 patients): 7.1%
- patients cured (cerebral malaria; 141 patients): 92.9%
- average defervescence time (cerebral malaria; across all sites): 34.1 to 56.7 h
- average parasite clearance time (cerebral malaria; across all sites): 33.3 to 64.5 h
- average time taken to regain consciousness (cerebral malaria; across all sites): 21.5 to 30.8 h
- cure rate (cerebral malaria; nasogastric gavage, 36 patients): 91.7%
- TGF-β mRNA levels within the tumor (TGF-β mRNA): significantly decreased
- CC50 (in vitro): 61 µg/mL (≈ 216 µM)
- AUC ([4]; 500 mg after food): 2,092±1,441 ng×ml^−1×h
- time at which half of the terminal value was reached ([4]; 500 mg after food): 0.97 ± 0.68 h
- maximum concentration of drug in serum (Cmax) ([4]; 500 mg capsules after food, six healthy subjects): 443 ± 224 ng/mL
- oral plasma clearance ([4]; 1×250, 2×250, 4×250 mg capsules, eight healthy subjects): about 400 L h-1
- mean oral clearance ([4]; population PK, 15 subjects, 160 and 500 mg): 417 L/h
- terminal elimination half-life ([4]; population PK, 15 subjects): 1.93 h
- volume of distribution ([4]; population PK, 15 subjects): 1210 L
- mean induction time of own metabolism ([4]; semiphysiological autoinduction model, saliva): 1.9 h
- elimination half-life, log-linear regression [5]: 4 (±1.3) h
- elimination half-life, non-linear regression, one-compartment model [5]: 2.4 ± 0.9 h
- mean (±SD) area under the concentration time curve [5]: 2365 (±1761) h ng/ml
- mean (±SD) clearance [5]: 382 (±303) L/h
- EC50 (SARS-COV-2 USA_WA1/2020 [6]; Severe acute respiratory syndrome coronavirus 2, Vero 76, 120 h, read-out: EC50 (50% effective antiviral concentration)): 0.45 µg/mL
- EC50 (SARS-COV-2 USA_WA1/2020 [6]; Severe acute respiratory syndrome coronavirus 2, Vero 76, 120 h, read-out: EC50: 50% effective antiviral concentration): 0.45 µg/mL
- EC50 (SARS-COV-2 USA_WA1/2020 [6]; Severe acute respiratory syndrome coronavirus 2, Vero 76, read-out: EC50 (value in brackets)): 1590 nM

Molecule: Clc1ccc2c(N3CCN(CCCN4CCN(c5ccnc6cc(Cl)ccc56)CC4)CC3)ccnc2c1 [piperaquine]
- slope of plasma concentration vs placebo-adjusted ΔQTcF [7]: 0.047 ms per ng ml-1

Molecule: CGTTTAGAGAACAGATCTAC [TRS2-2 53-72 MOE] (2'-MOE modified, pattern not given here)
- SI=CC50/EC50 (SARS-COV-2 USA_WA1/2020 [1]): >16
- SI (CC50/EC50) (SARS-COV-2 USA_WA1/2020 [1]): >16
- EC50: 50% effective antiviral concentration (SARS-COV-2 USA_WA1/2020 [1]): 62 µg/mL
- CC50 (Vero 76 cells): > 1000 µg/mL
- CC50: 50% cytotoxic concentration of compound without virus added (Vero 76 cells): >1000 µg/mL

Molecule: CATTGTAGATGTCAAAAGCC (phosphorothioate backbone, further chemistry not given here) [FS-2a (13539-13558)]
- SI=CC50/EC50 (SARS-COV-2 USA_WA1/2020 [1]): >59
- SI (CC50/EC50) (SARS-COV-2 USA_WA1/2020 [1]): >59
- EC50: 50% effective antiviral concentration (SARS-COV-2 USA_WA1/2020 [1]): 17 µg/mL
- Antiviral activity against SARS-CoV-2 (words) (SARS-COV-2 USA_WA1/2020 [1]): High antiviral activity
- CC50 (Vero 76 cells): > 1000 µg/mL
- CC50: 50% cytotoxic concentration of compound without virus added (Vero 76 cells): >1000 µg/mL

Molecule: CCN(CC)CCCC(C)Nc1ccnc2cc(Cl)ccc12 (stereo not drawn) [chloroquine]
- recrudescence in a month (falciparum malaria): 50%
- relapse rate within a month (vivax malaria): no cases of relapse

Molecule: TAAAGTTCGTTTAGAGAACAG (phosphorothioate backbone, further chemistry not given here) [TRS2 (56-76)]
- SI (CC50/EC50) (SARS-CoV (Urbani strain)): >2.9
- SI=CC50/EC50 (SARS-COV-2 USA_WA1/2020 [1]): >14
- SI (CC50/EC50) (SARS-COV-2 USA_WA1/2020 [1]): >14
- EC50: 50% effective antiviral concentration (SARS-COV-2 USA_WA1/2020 [1]): 73 µg/mL
- CC50 (Vero 76 cells): > 1000 µg/mL
- Cytotoxicity (Vero 76 cells): Cytotoxicity was observed
- CC50: 50% cytotoxic concentration of compound without virus added (Vero 76 cells): >1000 µg/mL

Molecule: CCC(CC)COC(=O)[C@H](C)N[P@](=O)(OC[C@H]1O[C@@](C#N)(c2ccc3c(N)ncnn23)[C@H](O)[C@@H]1O)Oc1ccccc1 [Remdesivir]
- CC50 (Vero E6 cells): > 200000 nM

Molecule: CCN(CCO)CCCC(C)Nc1ccnc2cc(Cl)ccc12 (stereo not drawn) [hydroxychloroquine]
- EC50 (SARS-CoV-2 virus): 720 to 17300 nM

Molecule: CGTTTAGAGAACAGATCTAC [TRS2-2 53-72] (phosphorothioate backbone, further chemistry not given here)
- SI=CC50/EC50 (SARS-COV-2 USA_WA1/2020 [1]): >530
- SI (CC50/EC50) (SARS-COV-2 USA_WA1/2020 [1]): >530
- EC50: 50% effective antiviral concentration (SARS-COV-2 USA_WA1/2020 [1]): 1.9 µg/mL
- Antiviral activity against SARS-CoV-2 (words) (SARS-COV-2 USA_WA1/2020 [1]): High antiviral activity
- CC50 (Vero 76 cells): > 1000 µg/mL
- CC50: 50% cytotoxic concentration of compound without virus added (Vero 76 cells): >1000 µg/mL

Molecule: CN(C)/N=N/c1[nH]cnc1C(N)=O [DTIC, dacarbazine]
- Tumor growth suppressed versus control group 1 on day 42 (C8161 human melanoma; group 3: 1 mg/kg ip four times/week): −2%
- Tumor growth suppressed versus control group 1 on day 42 (C8161 human melanoma; group 4: 10 mg/kg ip four times/week): 78%

Molecule: AGCCCTGTATACGAC [FS (13.458-13.274)MOE] (2'-MOE modified, pattern not given here)
- SI=CC50/EC50 (SARS-COV-2 USA_WA1/2020 [1]): >40
- EC50: 50% effective antiviral concentration (SARS-COV-2 USA_WA1/2020 [1]): 25 µg/mL
- CC50: 50% cytotoxic concentration of compound without virus added (Vero 76 cells): >1000 µg/mL

Molecule: CTCCCTCATGGTGGCAGTTGA (chemistry not given here) [RSV, reference compound]
- SI=CC50/EC50 (SARS-COV-2 USA_WA1/2020 [1]): >1.6
- SI (CC50/EC50) (SARS-COV-2 USA_WA1/2020 [1]): >1.6
- EC50: 50% effective antiviral concentration (SARS-COV-2 USA_WA1/2020 [1]): 620.0 µg/mL and 620 µg/mL
- Antiviral activity against SARS-CoV-2 (words) (SARS-COV-2 USA_WA1/2020 [1]): did not demonstrate any suppression
- CC50 (Vero 76 cells): > 1000 µg/mL

Molecule: GGTAGGTAAAAACCTAATAT [5TERM (1-20)] (phosphorothioate backbone, further chemistry not given here)
- SI=CC50/EC50 (SARS-COV-2 USA_WA1/2020 [1]): >140
- SI (CC50/EC50) (SARS-COV-2 USA_WA1/2020 [1]): >140
- EC50: 50% effective antiviral concentration (SARS-COV-2 USA_WA1/2020 [1]): 7.1 µg/mL
- Antiviral activity against SARS-CoV-2 (words) (SARS-COV-2 USA_WA1/2020 [1]): High antiviral activity
- CC50 (Vero 76 cells): > 1000 µg/mL
- CC50: 50% cytotoxic concentration of compound without virus added (Vero 76 cells): >1000 µg/mL

Molecule: GTTCGTTTAGAGAACAGATC (phosphorothioate backbone, 5-methyl C, further chemistry not given here) [TRS1 (53-72)]
- SI=CC50/EC50 (SARS-COV-2 USA_WA1/2020 [1]): 95
- SI (CC50/EC50) (SARS-COV-2 USA_WA1/2020 [1]): 95
- EC50: 50% effective antiviral concentration (SARS-COV-2 USA_WA1/2020 [1]): 7.6 µg/mL
- Antiviral activity against SARS-CoV-2 (words) (SARS-COV-2 USA_WA1/2020 [1]): High antiviral activity
- Cytotoxicity (Vero 76 cells; SARS-CoV-2 test): Cytotoxicity was observed
- CC50: 50% cytotoxic concentration of compound without virus added (Vero 76 cells): 720 µg/mL

Molecule: AGCCCTGTATACGAC [FS (13,458-13,472)] (antisense AGCCCTGTAGACGAC; phosphorothioate backbone, further chemistry not given here)
- SI=CC50/EC50 (SARS-COV-2 USA_WA1/2020 [1]): 53
- SI (CC50/EC50) (SARS-COV-2 USA_WA1/2020 [1]): 53
- EC50: 50% effective antiviral concentration (SARS-COV-2 USA_WA1/2020 [1]): 5.2 µg/mL
- Antiviral activity against SARS-CoV-2 (words) (SARS-COV-2 USA_WA1/2020 [1]): High antiviral activity
- Cytotoxicity (Vero 76 cells; SARS-CoV-2 test): Cytotoxicity was observed
- CC50: 50% cytotoxic concentration of compound without virus added (Vero 76 cells): 430 µg/mL

Molecule: GGTAGGTAAAAACCTAATAT [5TERM (1-20) MOE] (2'-MOE modified, pattern not given here)
- SI (CC50/EC50) (SARS-CoV (Urbani strain)): >2.6
- SI=CC50/EC50 (SARS-COV-2 USA_WA1/2020 [1]): 120
- SI (CC50/EC50) (SARS-COV-2 USA_WA1/2020 [1]): 120
- EC50: 50% effective antiviral concentration (SARS-COV-2 USA_WA1/2020 [1]): 4.9 µg/mL
- Antiviral activity against SARS-CoV-2 (words) (SARS-COV-2 USA_WA1/2020 [1]): High antiviral activity
- Cytotoxicity (Vero 76 cells): Cytotoxicity was observed
- Cytotoxicity (Vero 76 cells; SARS-CoV-2 test): Cytotoxicity was observed
- CC50: 50% cytotoxic concentration of compound without virus added (Vero 76 cells): 610 µg/mL
